# Results reported in patent publication EP0057998B1, “Alicyclic compounds, their production and use” (Takeda Chemical Industries, Ltd., priority 1981, dated 1982).
# Structures can show the parent of a compound that is named as a salt.
# Assays:
# [1] = target: Angiotensin I Converting Enzyme (ACE) (Homo sapiens, UniProt P12821); experiment: Inhibition of Angiotensin I Converting Enzyme (ACE), HHL substrate, hippuric acid colorimetry (modified Cushman method); format: biochemical; conditions: 37°C for one hour, pH 8.3, read-out: Inhibitory Activity on ACE (%); for inhibition at 1 µM: Concentration 1 μM; for inhibition at 10 µM: Concentration 10 μM
# Experimental: Inhibitions of Angiotensin I Converting Enzyme (ACE) by the Compounds of this Invention. The experiment was conducted in accordance with a modification of the method described by Cushman et al. [Biochemical Pharmacology, Vol. 20, 1637 (1971)]. That is, using hippuryl-L-histidyl-L-leucine (HHL) as the substrate, the ACE inhibitory activity was determined in terms of percent inhibition of the amount of hippuric acid produced by ACE when the present compound was added. A solution of the compound of the present invention dissolved in a 0.02 to 0.5% dimethyl sulfoxide-1 00 mM potassium phosphate buffer solution (pH 8.3, containing 300 mM sodium chloride) was added to 100 µl of ACE (protein concentration, 20 mg/ml) and 100 µl of -1.25 mM HHL. In this experiment, a potassium phosphate buffer solution containing dimethyl sulfoxide at a concentration equal to that of the test solution was used as a control. After incubating the solution at 37°C for one hour, 150 µl of 1 N hydrochloric acid was added to the solution to terminate the reaction. After 1 ml of ethyl acetate was added, the solution was centrifuged at 3000 r.p.m. for 10 minutes. A 0.5 ml aliquot was separated from the ethyl acetate layer and dried at a temperature below 50°C under nitrogen gas streams. The residue was mixed with 5 ml of 1 M aqueous sodium chloride and the mixture was subjected to colorimetry at a wavelength of 228 nm.
# [2] = tested on: Hypertensive Reaction by Angiotensin I; experiment: Effect against hypertensive activity of angiotensin I in rats after oral administration; format: in vivo, Male rats (Sprague-Dawley); conditions: 13.8 µM/kg orally, angiotensin I 300 ng/kg i.v., corrected by angiotensin II reaction; for Percent Inhibition (%) against Hypertensive Reaction by Angiotensin I After 20 min.: 20 min after administration; for Percent Inhibition (%) against Hypertensive Reaction by Angiotensin I After 60 min.: 60 min after administration; for Percent Inhibition (%) against Hypertensive Reaction by Angiotensin I After 120 min.: 120 min after administration
# Experimental: Effect of Present Compounds against Hypertensive Activity of Angiotensin I. Male rats (Sprague-Dawley) weighing 250 g to 350 g which were fed under free access to drinking water and feeds were used as experimental animals. The rats were anesthetized with intraperitoneal administration of pentobarbital sodium (50 mg/kg) on the day before the test day and a polyethylene tube was inserted into each of the femoral artery for measurement of blood pressure and the femoral vein for injection of angiotensin I and II, and then the tubes were fixed. […] Then, 13.8 µM/kg of the compound of this invention was administered orally as an aqueous solution or an aqueous gum arabic suspension, and 20, 60 and 120 minutes after the administration, angiotensin I and II were injected repeatedly to trace hypertensive reactions. In calculating the percent inhibition to the hypertensive activity of angiotensin I, the percent inhibitory value was corrected based on the variation with time in the hypertensive reaction by angiotensin II.
# Angiotensin I Converting Enzyme (ACE), sequence (P12821 30-1306, species assumed): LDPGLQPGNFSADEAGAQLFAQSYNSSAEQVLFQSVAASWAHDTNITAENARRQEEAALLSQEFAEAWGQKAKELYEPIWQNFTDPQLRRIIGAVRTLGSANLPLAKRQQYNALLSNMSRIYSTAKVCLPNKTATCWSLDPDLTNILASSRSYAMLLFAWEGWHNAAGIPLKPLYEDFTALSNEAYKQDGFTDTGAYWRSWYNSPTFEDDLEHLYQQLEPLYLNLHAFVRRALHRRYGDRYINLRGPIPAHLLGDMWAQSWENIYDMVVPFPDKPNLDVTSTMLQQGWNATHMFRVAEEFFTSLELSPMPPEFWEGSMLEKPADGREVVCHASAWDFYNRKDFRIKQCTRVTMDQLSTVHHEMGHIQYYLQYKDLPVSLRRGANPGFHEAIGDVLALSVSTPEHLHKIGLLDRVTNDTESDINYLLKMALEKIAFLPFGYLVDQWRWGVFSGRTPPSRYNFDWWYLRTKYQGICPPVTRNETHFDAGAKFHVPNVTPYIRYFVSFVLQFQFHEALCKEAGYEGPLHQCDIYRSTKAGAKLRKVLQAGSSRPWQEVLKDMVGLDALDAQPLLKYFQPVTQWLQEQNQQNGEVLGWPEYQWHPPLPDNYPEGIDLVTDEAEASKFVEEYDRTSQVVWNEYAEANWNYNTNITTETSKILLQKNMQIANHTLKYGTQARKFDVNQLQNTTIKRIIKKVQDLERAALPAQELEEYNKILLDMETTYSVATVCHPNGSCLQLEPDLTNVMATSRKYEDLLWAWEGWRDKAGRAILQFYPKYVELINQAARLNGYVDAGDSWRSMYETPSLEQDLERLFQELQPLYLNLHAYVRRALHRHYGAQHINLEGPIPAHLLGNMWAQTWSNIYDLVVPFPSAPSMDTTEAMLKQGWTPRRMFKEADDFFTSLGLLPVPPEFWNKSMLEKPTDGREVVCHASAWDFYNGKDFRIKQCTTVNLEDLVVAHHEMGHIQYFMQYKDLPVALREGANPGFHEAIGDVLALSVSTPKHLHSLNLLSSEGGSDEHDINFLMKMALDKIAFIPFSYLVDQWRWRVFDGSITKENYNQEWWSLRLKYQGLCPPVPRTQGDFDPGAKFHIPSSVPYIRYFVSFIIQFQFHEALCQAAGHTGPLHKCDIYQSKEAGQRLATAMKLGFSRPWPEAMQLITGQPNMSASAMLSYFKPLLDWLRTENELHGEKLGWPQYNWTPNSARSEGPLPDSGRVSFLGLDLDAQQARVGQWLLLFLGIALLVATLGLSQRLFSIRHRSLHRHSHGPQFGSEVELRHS
inhibition at 1 µM [1],inhibition at 10 µM [1],Compound,Percent Inhibition (%) against Hypertensive Reaction by Angiotensin I After 20 min. [2],Percent Inhibition (%) against Hypertensive Reaction by Angiotensin I After 60 min. [2],Percent Inhibition (%) against Hypertensive Reaction by Angiotensin I After 120 min. [2]
84%,96%,"CCOC(=O)C(CCc1ccccc1)N[C@@H](C)C(=O)N(CC(=O)O)C1CCCC1.Cl (stereo partly drawn) [Example 1, N-(1-ethoxycarbonyl-3-phenylpropyl)-L-alanyl-N-cyclopentylglycine hydrochloride]",92%,82%,82%
64%,90%,"CCOC(=O)C(CCc1ccccc1)N[C@@H](C)C(=O)N(CC(=O)O)C1CCCCC1.Cl (stereo partly drawn) [Example 2, N-(1-ethoxycarbonyl-3-phenylpropyl)-L-alanyl-N-cyclohexylglycine hydrochloride]",82%,82%,77%
–,–,"CCCCOC(=O)[C@H](CCc1ccccc1)N[C@@H](C)C(=O)N(CC(=O)O)C1CCCC1.Cl [Example 12, N-[1-(S)-butoxycarbonyl-3-phenylpropyl]-L-alanyl-N-cyclopentylglycine hydrochloride]",95%,85%,76%
93%,100%,"C[C@H](NC(CCc1ccccc1)C(=O)O)C(=O)N(CC(=O)O)C1CCCC1 (stereo partly drawn) [Example 13, N-(1-carboxy-3-phenylpropyl)-L-alanyl-N-cyclopentylglycine]",58%,64%,62%
78%,99%,"CCOC(=O)C(CCc1ccccc1)NC(C)C(=O)N(CC(=O)O)C1CC2CCC1C2 [Example 17, N-[1-(2)-ethoxycarbonyl-3-phenylpropyl]-L-alanyl-N-(2-exonorbornyl)glycine hydrobromide]",–,–,–
73%,93%,"CCOC(=O)C(CCc1ccccc1)N[C@@H](C)C(=O)N(CC(=O)O)C1C2CC3CC(C2)CC1C3 (stereo partly drawn) [Example 19, N-(1-ethoxycarbonyl-3-phenylpropyl)-L-alanyl-N-(2-adamantyl)glycine hydrobromide]",–,–,–

Compound,inhibition at 1 µM [1],inhibition at 10 µM [1],Percent Inhibition (%) against Hypertensive Reaction by Angiotensin I After 20 min. [2],Percent Inhibition (%) against Hypertensive Reaction by Angiotensin I After 60 min. [2],Percent Inhibition (%) against Hypertensive Reaction by Angiotensin I After 120 min. [2]
"CCCCOC(=O)C(CCc1ccccc1)N[C@@H](C)C(=O)N(CC(=O)O)C1CCCCCC1 (stereo partly drawn) [Example 7, N-(1-butoxycarbonyl-3-phenylpropyl)-L-alanyl-N-cycloheptylglycine hydrochloride]",88%,98%,–,–,–
